Structures are written as SMILES. Entries after “also recorded” stand apart in the source; their conditions may differ.

Common to all, as to assay type: cell-based, human
One assay deals with IL-8. Briefly: IL-8 production by PBMC from patients with rheumatoid arthritis, CBA. The procedure: (§1) CBA protocol was followed according to the manufacturer's instructions. The election of microparticles was performed following the summary of FIG. 1.
(§2) The acquisition on samples was performed with the BD FACS Array Bioanalyser System (FACSArray, Becton Dickinson, San José, Calif., USA) and the analysis of the results was completed with the software FCAP Array (Becton Dickinson) in a PC computer.
(§3) Briefly, the experimental protocol consisted of a plate pre-washing out with Wash Buffer. After decantation, the mixture of capture microparticles was re-suspended in the vortex. Standards and samples were added in the adequate dilution. After permanent stirring incubation during 1 h, the PE detection reagent was added and incubated again during 2 h at room temperature. After a washing-out, the acquisition was performed in the flow cytometer.
The effect on IL-8 production by PBMC from patients with rheumatoid arthritis was also studied. […] Culture supernatants were frozen at −20° C. and IL-8 concentration was quantified by BD FACS Array Bioanalyser by using CBA Flex Set, specific to determine IL-8 concentration, following the manufacturer instructions.

Assay [1] has as its system IL-10. Description: IL-10 production by PBMC from healthy volunteers, CBA. The note with it: FIG. 9. As to the method: as §1, §2, §3
The effects of compound 12 on IL-10 production by the PBMC from healthy volunteers and patients with rheumatoid arthritis were investigated in the presence and absence of LPS stimulation and with the combination of monoclonal antibodies anti-CD3 and anti-CD28. […]

For assay [2], the system named is IL-10. Briefly: IL-10 production by PBMC from patients with rheumatoid arthritis, CBA. The procedure:
as §1, §2, §3
On the other hand, PBMC (5×10^4 cells per well) from 8 patients with rheumatoid arthritis were cultured in duplicate in 200 μl of complete medium supplemented with the highest solvent concentration (10^−6 M), and 10^−6 M, 10^−7 M and 10^−8 M of compound 12 in the presence and absence of either LPS (10 μg/ml) or anti-CD3 (12.5 ng/ml), +anti-CD28 (⅓×10^5), during 24 hours. […]

Another assay concerns CD62L in lymphocytes. Description: Shedding of CD62L in lymphocytes of PBMC, flow cytometry. The note with it: healthy volunteers; 10^−6 M; p<0.05; FIG. 12a. The procedure:
(§4) Direct immuno-fluorescence techniques of one colour with monoclonal antibodies phycoerythrin-labeled (PE) was used. PE is a fluorescent substance excitable with a 488 nm laser, which emits at 570 nm, and it is detectable and easily distinguishable by a flow cytometer. By using the antibody described in Table 1, a direct labelling was performed:
(§5) PBMC labelling: the process consisted in a labelling using 96 well V bottom plates. In each well, 5×10^4 cells are located, and afterwards centrifugated at 400×g during 5 minutes. After washing-out, cells are re-suspended and 5 μl of the corresponding monoclonal antibody are added. Cells are again re-suspended and the plate is incubated in darkness, during 20 minutes, at 4° C. Subsequently, 150 μl PBS are added and two wash-outs are performed. Finally, it is re-suspended in 150 μl PBS and collected in a cytometer tube, adding PBS up to a final volume of 0.3 ml.
(§6) For the counting, a FACSCalibur flow cytometer equipped with argon laser tuned at 488 nm was used in order to induce phycoerythrin fluorescence. The equipment, apart from the fluorescence channels, also provided information about the size (FSC) and cellular complexity (SSC).
(§7) As negative controls, the study cells with no labelling and other irrelevant labelled with monoclonal antibodies of equal isotypes than the ones used in the study (IgG1-FITC, PE y TC, IgG2a FITC, PE, TC), were used. […]

The next assay has as its system CD62L in monocytes. Description: Shedding of CD62L in monocytes of PBMC, flow cytometry. The conditions noted are these: healthy volunteers; FIG. 12b. As to the method: as §4, §5, §6, §7
A further assay deals with IFN-gamma. Description: IFN-gamma production by PBMC from healthy volunteers, CBA. As to the method: as §1, §2
Briefly, the experimental protocol consisted of a plate pre-washing out with Wash Buffer. After decantation, the mixture of capture microparticles was re-suspended in the vortex. Standards and samples were added in the adequate dilution. After permanent stirring incubation during 1 h, the PE detection reagent was added and incubated again during 2 h at room temperature. […]
PBMC (5×10^4 cells per well) from 13 healthy volunteers were cultured in duplicate in 200 μl of complete medium supplemented with the highest solvent concentration (10^−6 M), and 10^−6 M, 10^−7 M and 10^−8 M of compound 12 in the presence or absence, either of LPS (10 μg/ml), or anti-CD3 (12.5 ng/ml)+anti-CD28 (⅓×10^5), during 24 hours. Culture supernatants were frozen at −20° C. and the concentration of IFN-gamma was quantified by BD FACS Array Bioanalyser by using CBA Flex Set (Becton Dickinson), specific to determine the concentration of IFN-gamma, following the manufacturer instructions.

For the compound `Cc1nc(OC2CCCC2)c(-c2ccc(S(C)(=O)=O)cc2)s1` [Compound 12, 4-cyclopentyloxy-5-(4-methylsulfonyl-phenyl)-2-methyl-thiazole], the “Effect on IL-8 production by PBMC, spontaneous or anti-CD3 and anti-CD28 induced” value with IL-8 was “neither modified the spontaneous IL-8 production nor that induced by the combination of monoclonal antibodies anti-CD3 and anti-CD28”. Further, the “Effect on LPS-induced production of IL-8 in PBMC” value in the assay with IL-8 (10^−6 M and 10^−8 M, FIG. 8) is “significantly inhibited”. Besides, the “Effect on IL-10 production by PBMC in the presence and absence of LPS or anti-CD3 + anti-CD28” value with IL-10 [1] was “no effects; also recorded: No statistical differences were found”. Moreover, in the assay with IL-10 [2], the “Effect on IL-10 production by PBMC, spontaneous or anti-CD3 and anti-CD28 stimulated” value was “no significant effects”. For the same compound, the “Effect on IL-10 production after stimulation with LPS” value in the assay on IL-10 [2] (10^−8, p<0.05, FIG. 10) is listed as “significantly inhibited”. In addition, the “Effect on CD62L shedding in lymphocytes” value in the assay with CD62L in lymphocytes is recorded as “increases significantly”. Further, the “Effect on CD62L shedding in monocytes” value in the assay with CD62L in monocytes is recorded as “significant differences were not observed”. Further, the “Effect on IFN-gamma production by PBMC, LPS-stimulated or anti-CD3 and anti-CD28 stimulated” value with IFN-gamma (10^−6 M, p<0.05, FIG. 5) is on record as “significantly inhibited”. In addition, in the assay on IFN-gamma (no stimulus), the “Effect on spontaneous secretion of IFN-gamma by PBMC” value is listed as “not modified”.

The values are drawn from US7781594B2, “5-(4-methanesulfonyl-phenyl)-thiazole derivatives for the treatment of acute and chronic inflammatory diseases” (Faes Farma, S.A., priority 2008, dated 2010).
